According to patent US10864197B2, “Biphenyl sulfonamide compounds for the treatment of kidney diseases or disorders” (Retrophin, Inc., priority 2016, dated 2020):

Columns and labels:
[1] = test system: patients with primary focal segmental glomerulosclerosis (FSGS); assay: DUET phase 2 trial: change in urine protein to creatinine (UP/C) ratio, proteinuria; assay type: in vivo, human; conditions: for Complete remission (UP/C ratio <0.3 g/g), number of patients: 8-week double-blind period; for Reduction from Baseline in UP/C ratio (geometric least squares mean reduction) / Reduction from Baseline in UP/C ratio, intent-to-treat analysis: baseline to week 8; for Reduction from Baseline in UP/C ratio, intent-to-treat analysis: missing data imputed as zero change; for Proportion of patients who achieved UP/C ratio ≤1.5 g/g with >40% reduction: week 8; for percentage of patients achieving UP/C ratio ≤1.5 g/g with >40% reduction during open-label period: 8 weeks to 48 weeks
Text: DUET trial is a phase 2, double-blind, randomized, active-control, dose-escalation study (NCT01613118) that evaluates the efficacy and safety of sparsentan as a treatment for primary focal segmental glomerulosclerosis (FSGS), a rare disorder characterized by massive proteinuria and progressive loss of kidney function. Patients (ranging in age from 8 years to 75 years) with biopsy-proven primary FSGS (or documentation of a genetic mutation in a podocyte protein associated with the disease) having baseline urine protein to creatinine (“UP/C”) ratios greater than […] and estimated glomerular filtration rates greater than 30 ml/min were eligible for the study. The inclusion criteria also included a mean seated blood pressure >[…] and <145/96 mmHg for patients aged 18 years or older, or, for patients aged <18 years of age, a mean seated blood pressure of >90/60 mmHg and <95th percentile for age, gender, and height. The inclusion criteria included an allowance for a stable dose of immunosuppressive medication for ≥1 month. […] Patients who signed consent and met all inclusion and exclusion criteria during the screening phase underwent a 2-week angiotensin receptor blocker (ARB) and angiotensin converting enzyme (ACE) inhibitor washout period before being randomly assigned to one of the three escalating dose cohorts receiving sparsentan (200 mg/day; 400 mg/day; and 800 mg/day) or a fixed maximal dose of active control (the ARB irbesartan, at 300 mg/day) in a 3:1 ratio within each cohort. The primary endpoint was the change in UP/C ratio (determined as a measure of urinary protein excretion) from baseline. […] After the completion of an 8-week double-blind period, the patients continued sparsentan treatment on their assigned doses in an open-label extension for 136 additional weeks. Irbesartan control arm patients were offered sparsentan treatment at the dose they would have received according to the double-blind dose group in which they were enrolled. The analysis of the primary endpoint included 96 randomized patients who received at least one dose of the study drug, and had both baseline and week 8 UP/C ratio values (i.e., had completed 8 weeks of double-blind treatment). The pre-specified analysis order was (1) all sparsentan doses vs. irbesartan; (2) sparsentan 800- and 400-mg doses vs. irbesartan; (3) sparsentan 400-mg dose vs. irbesartan; (4) sparsentan 800-mg dose vs. irbesartan. Baseline or week 8 UP/C ratio data were missing for 9 sparsentan-treated patients and 4 irbesartan-treated patients. An intent-to-treat analysis was conducted, in which the missing data were imputed as zero change in UP/C ratio. […] The results across sparsentan dose cohorts were similar to those observed without imputed data (Table 4).

[2] = DUET trial: systolic and diastolic blood pressure; assay type: in vivo, human; conditions: double-blind period; irbesartan n=32, sparsentan n=64
Text: DUET trial is a phase 2, double-blind, randomized, active-control, dose-escalation study (NCT01613118) that evaluates the efficacy and safety of sparsentan as a treatment for primary focal segmental glomerulosclerosis (FSGS), a rare disorder characterized by massive proteinuria and progressive loss of kidney function. Patients (ranging in age from 8 years to 75 years) with biopsy-proven primary FSGS (or documentation of a genetic mutation in a podocyte protein associated with the disease) having baseline urine protein to creatinine (“UP/C”) ratios greater than 1 g/g and estimated glomerular filtration rates greater than 30 ml/min were eligible for the study. […]
Patients who signed consent and met all inclusion and exclusion criteria during the screening phase underwent a 2-week angiotensin receptor blocker (ARB) and angiotensin converting enzyme (ACE) inhibitor washout period before being randomly assigned to one of the three escalating dose cohorts receiving sparsentan (200 mg/day; 400 mg/day; and 800 mg/day) or a fixed maximal dose of active control (the ARB irbesartan, at 300 mg/day) in a 3:1 ratio within each cohort. The primary endpoint was the change in UP/C ratio (determined as a measure of urinary protein excretion) from baseline. […]

[3] = Baseline, sparsentan 200-800 mg/day (n=64), irbesartan 300 mg/day (n=32)
[4] = Baseline, sparsentan 400-800 mg/day (n=51), irbesartan 300 mg/day (n=25)
[5] = Week 8, sparsentan 200-800 mg/day (n=64), irbesartan 300 mg/day (n=32)
[6] = Week 8, sparsentan 400-800 mg/day (n=51), irbesartan 300 mg/day (n=25)
[7] = dose cohort 200 mg sparsentan, irbesartan 300 mg/day
[8] = dose cohort 400 mg and 800 mg sparsentan, irbesartan 300 mg/day
[9] = dose cohort 400 mg sparsentan, irbesartan 300 mg/day
[10] = dose cohort 800 mg sparsentan, irbesartan 300 mg/day
[11] = dose cohort All (sparsentan 200-800 mg/day; irbesartan 300 mg/day)
[12] = sparsentan 200-800 mg/day (n=64), irbesartan 300 mg/day (n=32)
[13] = sparsentan 400-800 mg/day (n=51), irbesartan 300 mg/day (n=25)

SMILES	Complete remission (UP/C ratio <0.3 g/g), number of patients [1]	UP/C ratio, maximum [1, 3] [g/g]	UP/C ratio, mean (SD) [1, 3]	UP/C ratio, median [1, 3] [g/g]	UP/C ratio, minimum [1, 3] [g/g]	UP/C ratio, maximum [1, 4] [g/g]	UP/C ratio, mean (SD) [1, 4]	UP/C ratio, median [1, 4] [g/g]	UP/C ratio, minimum [1, 4] [g/g]	UP/C ratio, maximum [1, 5] [g/g]	UP/C ratio, mean (SD) [1, 5]	UP/C ratio, median [1, 5] [g/g]	UP/C ratio, minimum [1, 5] [g/g]	UP/C ratio, maximum [1, 6] [g/g]	UP/C ratio, mean (SD) [1, 6]	UP/C ratio, median [1, 6] [g/g]	UP/C ratio, minimum [1, 6] [g/g]	Reduction from Baseline in UP/C ratio (geometric least squares mean reduction) [1, 7] [%]	Reduction from Baseline in UP/C ratio (geometric least squares mean reduction) [1, 8] [%]	Reduction from Baseline in UP/C ratio (geometric least squares mean reduction) [1, 9] [%]	also measured
CCCCC1=NC2(CCCC2)C(=O)N1Cc1ccc(-c2ccccc2-c2nnn[nH]2)cc1 [Irbesartan, irbesartan, reference compound]	in no irbesartan-treated patients	10.73	4.017 (2.6717) g/g	3.265	0.88	10.73	3.816 (2.7160) g/g	2.970	0.88	10.19	3.164 (2.2713) g/g	2.405	0.43	10.19	2.990 (2.3598) g/g	2.390	0.43	15.0	19.0	28.1	Reduction from Baseline in UP/C ratio (geometric least squares mean reduction) ([1]; dose cohort 400 mg and 800 mg sparsentan, irbesartan 300 mg/day, listed as irbesartan): 19%; Reduction from Baseline in UP/C ratio (geometric least squares mean reduction) [1, 10]: 9.3%; Reduction from Baseline in UP/C ratio (geometric least squares mean reduction) [1, 11]: 18.5%; Reduction from Baseline in UP/C ratio (geometric least squares mean reduction) ([1]; dose cohort All (sparsentan 200-800 mg/day; irbesartan 300 mg/day), listed as irbesartan): 19%; Reduction from Baseline in UP/C ratio, intent-to-treat analysis ([1]; dose cohort 200 mg): 13.2%; Reduction from Baseline in UP/C ratio, intent-to-treat analysis ([1]; dose cohort 400 mg): 23.6%; Reduction from Baseline in UP/C ratio, intent-to-treat analysis ([1]; dose cohort 400 mg and 800 mg): 15.9%; Reduction from Baseline in UP/C ratio, intent-to-treat analysis ([1]; dose cohort 800 mg): 9.7%; Reduction from Baseline in UP/C ratio, intent-to-treat analysis ([1]; dose cohort All): 15.7%; % Change from Baseline to Week 8 in UP/C ratio, geometric LSmeans [1, 12]: −18.5%; % Change from Baseline to Week 8 in UP/C ratio, geometric LSmeans [1, 13]: −19.0%; Proportion of patients who achieved UP/C ratio ≤1.5 g/g with >40% reduction ([1]; dose cohort 200 mg): 0.0%; Proportion of patients who achieved UP/C ratio ≤1.5 g/g with >40% reduction ([1]; dose cohort 400 mg): 17.7%; Proportion of patients who achieved UP/C ratio ≤1.5 g/g with >40% reduction ([1]; dose cohort 400 mg and 800 mg): 12.0%; Proportion of patients who achieved UP/C ratio ≤1.5 g/g with >40% reduction ([1]; dose cohort 800 mg): 0.0%; Proportion of patients who achieved UP/C ratio ≤1.5 g/g with >40% reduction ([1]; dose cohort All): 9.4%; Proportion of patients who achieved UP/C ratio ≤1.5 g/g with >40% reduction ([1]; dose cohort All, listed as irbesartan): 9%; mean systolic and diastolic blood pressures relative to baseline [2]: reductions
CCCCC1=NC2(CCCC2)C(=O)N1Cc1ccc(-c2ccccc2S(=O)(=O)Nc2noc(C)c2C)c(COCC)c1 [Sparsentan, 4′-((2-butyl-4-oxo-1,3-diazaspiro[4.4]non-1-en-3-yl)methyl)-N-(4,5-dimethylisoxazol-3-yl)-2′-(ethoxymethyl)-[1,1′-biphenyl]-2-sulfonamide]	4 patients	18.66	4.707 (3.7810) g/g	3.620	0.43	18.66	4.824 (4.0506) g/g	3.530	0.43	14.47	3.300 (3.5719) g/g	1.980	0.12	14.47	3.208 (3.4738) g/g	1.900	0.12	33.1	47.4	52.7	percentage of patients achieving UP/C ratio ≤1.5 g/g with >40% reduction during open-label period ([1]; patients continuing to receive sparsentan): increased; percentage of patients achieving UP/C ratio ≤1.5 g/g with >40% reduction during open-label period ([1]; patients switched from irbesartan to sparsentan): increased; Reduction from Baseline in UP/C ratio (geometric least squares mean reduction) ([1]; dose cohort 400 mg and 800 mg sparsentan, irbesartan 300 mg/day, listed as sparsentan): 47%; Reduction from Baseline in UP/C ratio (geometric least squares mean reduction) [1, 10]: 41.3%; Reduction from Baseline in UP/C ratio (geometric least squares mean reduction) [1, 11]: 44.8%; Reduction from Baseline in UP/C ratio (geometric least squares mean reduction) ([1]; dose cohort All (sparsentan 200-800 mg/day; irbesartan 300 mg/day), listed as sparsentan): 45%; Reduction from Baseline in UP/C ratio, intent-to-treat analysis ([1]; dose cohort 200 mg): 33.1%; Reduction from Baseline in UP/C ratio, intent-to-treat analysis ([1]; dose cohort 400 mg): 50.5%; Reduction from Baseline in UP/C ratio, intent-to-treat analysis ([1]; dose cohort 400 mg and 800 mg): 44.8%; Reduction from Baseline in UP/C ratio, intent-to-treat analysis ([1]; dose cohort 800 mg): 38.4%; Reduction from Baseline in UP/C ratio, intent-to-treat analysis ([1]; dose cohort All): 42.7%; % Change from Baseline to Week 8 in UP/C ratio, geometric LSmeans [1, 12]: −44.8%; % Change from Baseline to Week 8 in UP/C ratio, geometric LSmeans [1, 13]: −47.4%; Proportion of patients who achieved UP/C ratio ≤1.5 g/g with >40% reduction ([1]; dose cohort 200 mg): 15.4%; Proportion of patients who achieved UP/C ratio ≤1.5 g/g with >40% reduction ([1]; dose cohort 400 mg): 38.1%; Proportion of patients who achieved UP/C ratio ≤1.5 g/g with >40% reduction ([1]; dose cohort 400 mg and 800 mg): 31.4%; Proportion of patients who achieved UP/C ratio ≤1.5 g/g with >40% reduction ([1]; dose cohort 800 mg): 26.7%; Proportion of patients who achieved UP/C ratio ≤1.5 g/g with >40% reduction ([1]; dose cohort All): 28.1%; Proportion of patients who achieved UP/C ratio ≤1.5 g/g with >40% reduction ([1]; dose cohort All, listed as sparsentan): 28%; mean systolic and diastolic blood pressures relative to baseline [2]: reduction was statistically significant
